SMILES strings stand for the structures. Bounds are passed on as bounds.

The values below come from patent US20240400555A1 (Initial Therapeutics, Inc., priority 2023, published 2024).

One test concerns MV-4-11 cells. As to the kind of experiment: Cell Viability Assay in MV-4-11 Cells. It is filed as cell-based. The conditions noted are these: Homo sapiens, MV4-11, 72 h, MV-4-11 cells, 72 h, Cell-Titer Glo; read-out: IC50. An outline of the steps: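 MV-4-11 cells at 7,000/well in IMDM with 10% FBS, exposed to compound for 72 h. Viability by CellTiter-Glo luminescence, normalized to DMSO as 100%, fitted with a four-parameter curve.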
On to `Cc1cccc2ccnc(N(C(=O)c3ccc(Nc4nccc(NCc5ccccn5)n4)cc3F)[C@@H]3CCCNC3)c12` [Example 695, (R)-2-fluoro-N-(8-methylisoquinolin-1-yl)-N-(piperidin-3-yl)-4-((4-((pyridin-2-ylmethyl)amino)pyrimidin-2-yl)amino)benzamide], for which the IC50 – broadly, the concentration at which inhibition is half-maximal – is 130 nM.
On to `Cc1cccc2ccnc(N(C(=O)c3ccc(Nc4ncccn4)cc3)[C@@H]3CCCNC3)c12` [Example 309, (R)—N-(8-methylisoquinolin-1-yl)-N-(piperidin-3-yl)-4-(pyrimidin-2-ylamino)benzamide], for which the IC50 came to 280 nM.
On the same count and under the same terms, for `COC(=O)CCC#Cc1cccc(C(=O)N(c2nccc3cccc(C)c23)[C@@H]2CCCNC2)c1` [Example 589, methyl (R)-5-(3-((8-methylisoquinolin-1-yl)(piperidin-3-yl)carbamoyl)phenyl)pent-4-ynoate] the value was 1000 nM; for `O=C(c1ccc(-n2nnc3cccnc32)cc1F)N(c1nccc2sc(-c3cc[nH]c(=O)c3)cc12)[C@@H]1CCCNC1` [Example 459, 2-fluoro-N-[2-(2-oxo-1H-pyridin-4-yl)thieno[3,2-c]pyridin-4-yl]-N-[(3R)-3-piperidyl]-4-(triazolo[4,5-b]pyridin-3-yl)benzamide], 430 nM.
On the same count and under the same terms, for `O=C(c1ccc(-n2nnc3cccnc32)cc1F)N(c1nccc2sc(-c3cnn(-c4ccccn4)c3)cc12)[C@@H]1CCCNC1` [Example 435, 2-fluoro-N-[(3R)-3-piperidyl]-N-[2-[1-(2-pyridyl)pyrazol-4-yl]thieno[3,2-c]pyridin-4-yl]-4-(triazolo[4,5-b]pyridin-3-yl)benzamide] the value was 300 nM; for `Cc1cccc2ccnc(N(C(=O)c3ccc(Nc4nccc(N5CCC(O)CC5)n4)cc3F)[C@@H]3CCCNC3)c12` [Example 717, (R)-2-fluoro-4-((4-(4-hydroxypiperidin-1-yl)pyrimidin-2-yl)amino)-N-(8-methylisoquinolin-1-yl)-N-(piperidin-3-yl)benzamide], 30 nM; for `Cc1cccc2ccnc(N(C(=O)c3ccc(Nc4nccc(C5=CCC(O)CC5)n4)cc3F)[C@@H]3CCCNC3)c12` (stereo partly drawn) [Example 681, 2-fluoro-4-((4-(4-hydroxycyclohex-1-en-1-yl)pyrimidin-2-yl)amino)-N-(8-methylisoquinolin-1-yl)-N—((R)-piperidin-3-yl)benzamide], 32 nM.
Consider `COCCc1nnc(-c2ccc(C(=O)N(c3nccc4cc(C)cc(C)c34)[C@@H]3CCCNC3)cn2)s1` [Example 903, N-(6,8-dimethyl-1-isoquinolyl)-6-[5-(2-methoxyethyl)-1,3,4-thiadiazol-2-yl]-N-[(3R)-3-piperidyl]pyridine-3-carboxamide], for which the IC50 was 45 nM.
Regarding `Cc1nnc(-c2ccc(C(=O)N(c3nccc4cc(F)cc(C)c34)C3CCCNC3)cc2)s1` (stereo not drawn) [Example 725, N-(6-fluoro-8-methyl-1-isoquinolyl)-4-(5-methyl-1,3,4-thiadiazol-2-yl)-N-(3-piperidyl)benzamide], the IC50 came to 210 nM.
Still for that read-out and setting: the figure for `Cc1cccc2ccnc(N(C(=O)c3ccc(Nc4ncc(F)cn4)cc3F)[C@@H]3CCCNC3)c12` [Example 409, (R)-2-fluoro-4-((5-fluoropyrimidin-2-yl)amino)-N-(8-methylisoquinolin-1-yl)-N-(piperidin-3-yl)benzamide] is 54 nM.
The same measure, in the same setting: the figure for `COc1cc(C)c2c(N(C(=O)c3ccc(-c4cn(C)nn4)cc3)[C@@H]3CCCNC3)nccc2c1` [Example 858, N-(6-methoxy-8-methyl-1-isoquinolyl)-4-(1-methyltriazol-4-yl)-N-[(3R)-3-piperidyl]benzamide] is 55 nM; for `Cn1cc(-c2ccc(C(=O)N(c3nccc4sc(-c5ccncc5)cc34)[C@@H]3CCCNC3)c(F)c2)nn1` [Example 363, 2-fluoro-4-(1-methyltriazol-4-yl)-N-[(3R)-3-piperidyl]-N-[2-(4-pyridyl)thieno[3,2-c]pyridin-4-yl]benzamide] it is 350 nM; for `Cc1cccc2ccnc(N(C(=O)c3ccc(Nc4nccc(NCc5ccccc5)n4)cc3F)[C@@H]3CCCNC3)c12` [Example 786, (R)-4-((4-(benzylamino)pyrimidin-2-yl)amino)-2-fluoro-N-(8-methylisoquinolin-1-yl)-N-(piperidin-3-yl) benzamide] it is 120 nM.
Take `Cc1cccc2ccnc(N(C(=O)c3ccc(C#N)c(-c4cccc(-c5cn[nH]c5)c4)c3)[C@@H]3CCCNC3)c12` [Example 329, (R)-6-cyano-N-(8-methylisoquinolin-1-yl)-N-(piperidin-3-yl)-3′-(1H-pyrazol-4-yl)-[1,1′-biphenyl]-3-carboxamide]: the IC50 is 72 nM.
Same read-out and setting: for `Cc1cccc2ccnc(N(C(=O)c3ccc(Nc4nccc(N5CCS(=O)(=O)CC5)n4)cc3F)[C@@H]3CCCNC3)c12` [Example 935, (R)-4-((4-(1,1-dioxidothiomorpholino)pyrimidin-2-yl)amino)-2-fluoro-N-(8-methylisoquinolin-1-yl)-N-(piperidin-3-yl)benzamide] the value was 63 nM; for `O=C(c1ccc(Nc2nccc(N3CCCCC3)n2)cc1F)N(c1nccc2cc(F)ccc12)[C@@H]1CCCNC1` [Example 561, (R)-2-fluoro-N-(6-fluoroisoquinolin-1-yl)-4-((4-(piperidin-1-yl)pyrimidin-2-yl)amino)-N-(piperidin-3-yl)benzamide], 1200 nM; for `Cc1cccc2ccnc(N(C(=O)c3ccc(-c4nnc(C5CC5)s4)cc3)[C@@H]3CCCNC3)c12` [Example 790, (R)-4-(5-cyclopropyl-1,3,4-thiadiazol-2-yl)-N-(8-methylisoquinolin-1-yl)-N-(piperidin-3-yl) benzamide], 240 nM.
Take `O=C(NCc1ccccc1)c1ccc2c(N(C(=O)c3ccc(-n4nnc5cccnc54)cc3F)[C@@H]3CCCNC3)nccc2c1` [Example 373, (R)-1-(4-(3H-[1,2,3]triazolo[4,5-b]pyridin-3-yl)-2-fluoro-N-(piperidin-3-yl)benzamido)-N-benzylisoquinoline-6-carboxamide]: the half-inhibitory concentration (IC50) is 180 nM.
Regarding `Cc1cccc2ccnc(N(C(=O)c3ccc(Nc4nccc(CCO)n4)cc3F)[C@@H]3CCCNC3)c12` [Example 736, (R)-2-fluoro-4-((4-(2-hydroxyethyl)pyrimidin-2-yl)amino)-N-(8-methylisoquinolin-1-yl)-N-(piperidin-3-yl)benzamide], the IC50 was 220 nM.
The same measure, in the same setting: for `Cc1cccc2ccnc(N(C(=O)c3ccc(Nc4nccc(N5CCC[C@@H]5CO)n4)cc3F)[C@@H]3CCCNC3)c12` [Example 966, 2-fluoro-4-({4-[(2R)-2-(hydroxymethyl)pyrrolidin-1-yl]pyrimidin-2-yl}amino)-N-(8-methylisoquinolin-1-yl)-N-[(3R)-piperidin-3-yl]benzamide] the value was 32 nM; for `Cc1cccc2ccnc(N(C(=O)c3cccc(C#CCCN)c3)[C@@H]3CCCNC3)c12` [Example 515, (R)-3-(4-aminobut-1-yn-1-yl)-N-(8-methylisoquinolin-1-yl)-N-(piperidin-3-yl)benzamide], 2100 nM; for `NS(=O)(=O)c1ccc(-c2cc3c(N(C(=O)c4ccc(-n5nnc6cccnc65)cc4F)[C@@H]4CCCNC4)nccc3s2)cc1` [Example 414, 2-fluoro-N-[(3R)-3-piperidyl]-N-[2-(4-sulfamoylphenyl)thieno[3,2-c]pyridin-4-yl]-4-(triazolo[4,5-b]pyridin-3-yl)benzamide], 220 nM.
As to `Cc1cccc2ccnc(N(C(=O)c3ccc(Nc4nccc(CN5CCCCC5)n4)cc3F)[C@@H]3CCCNC3)c12` [Example 687, (R)-2-fluoro-N-(8-methylisoquinolin-1-yl)-4-((4-(piperidin-1-ylmethyl)pyrimidin-2-yl)amino)-N-(piperidin-3-yl)benzamide], the IC50 turned out to be 40 nM.
Take `Cn1cc(-c2ccc(C(=O)N(c3nccc4sc(-c5cccc(C(N)=O)c5)cc34)[C@@H]3CCCNC3)c(F)c2)nn1` [Example 480, N-[2-(3-carbamoylphenyl)thieno [3,2-c]pyridin-4-yl]-2-fluoro-4-(1-methyltriazol-4-yl)-N-[(3R)-3-piperidyl] benzamide]: the IC50 is 540 nM.
Same read-out and setting: for `COCCn1cc(-c2ccc(C(=O)N(c3nccc4scc(C)c34)[C@@H]3CCCNC3)c(F)c2)nn1` [Example 640, (R)-2-fluoro-4-(1-(2-methoxyethyl)-1H-1,2,3-triazol-4-yl)-N-(3-methylthieno[3,2-c]pyridin-4-yl)-N-(piperidin-3-yl)benzamide] the value was 85 nM; for `O=C(c1ccc(Nc2ncccn2)cc1F)N(c1nccc2cc(F)ccc12)[C@@H]1CCCNC1` [Example 591, (R)-2-fluoro-N-(6-fluoroisoquinolin-1-yl)-N-(piperidin-3-yl)-4-(pyrimidin-2-ylamino)benzamide], above 2000 nM; for `Cc1cccc2ccnc(N(C(=O)c3ccc(Nc4nccc(N5CCOCC5=O)n4)cc3F)[C@@H]3CCCNC3)c12` [Example 937, (R)-2-fluoro-N-(8-methylisoquinolin-1-yl)-4-(4-(3-oxomorpholino)pyrimidin-2-ylamino)-N-(piperidin-3-yl)benzamide], 50 nM.
In the case of `COc1ccc(C)c2c(N(C(=O)c3ccc(-c4nnc(C)s4)cc3)[C@@H]3CCCNC3)nccc12` [Example 871, N-(5-methoxy-8-methyl-1-isoquinolyl)-4-(5-methyl-1,3,4-thiadiazol-2-yl)-N-[(3R)-3-piperidyl]benzamide], the IC50 turned out to be 720 nM.
Same read-out and setting: for `Cc1cc(C2CCN(C(=O)N(c3nccc4scc(C)c34)[C@@H]3CCCNC3)CC2)on1` [Example 796, (R)-4-(3-methylisoxazol-5-yl)-N-(3-methylthieno[3,2-c]pyridin-4-yl)-N-(piperidin-3-yl)piperidine-1-carboxamide] the value was 510 nM.

Still in this test, the particulars now being: MV-4-11 cells, 72 h, Cell-Titer Glo; read-out: IC50.
Turning to `Cn1cc(-c2ccc(C(=O)N(c3nccc4cc(-c5ccccc5)ccc34)[C@@H]3CCCNC3)c(F)c2)nn1` [Example 577, (R)-2-fluoro-4-(1-methyl-1H-1,2,3-triazol-4-yl)-N-(6-phenylisoquinolin-1-yl)-N-(piperidin-3-yl)benzamide], the IC50 was found to be 76 nM.
